Here are results for 14 compounds from ChEMBL document CHEMBL1201862, “PubChem BioAssay data set” (2004).

Test systems include HOP-92; SK-MEL-2; UACC-257; SF-539; HL-60; HCT-15; SK-MEL-28; KM12; SNB-19; M19-MEL; NCI-H23; HT-29; NCI-H226; RPMI-8226; SK-MEL-5; SR; BT-549; Hs-578T; MDA-MB-231; DU-145.
Holding throughout (assay): NCI tumour cell line growth inhibition, 48 h

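Results reflect a 48-hour exposure of cells in 96-well plates to compound at five concentrations. Here, GI50 denotes the concentration required for 50% inhibition of growth.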 The source made the active and inactive calls. No stated cut-off is given here; in the data, active = GI50 up to about 1.1 µM and inactive = higher.

Turning to `CC(C)(C)c1cc(CCC(=O)Nc2ccc(Cl)cc2)nc(NC#N)n1`, the GI50 in the experiment with HOP-92 was 91 µM (inactive); in the experiment on SK-MEL-2 it was > 100 µM (inactive); with UACC-257 it was > 100 µM (inactive); in the experiment on SF-539 it was > 100 µM (inactive); in the experiment with HL-60 it was > 100 µM (inactive); in the experiment on HCT-15 it was over 100 µM. For the same compound, the GI50 with SK-MEL-28, in the experiment on KM12, in the experiment on SNB-19, with M19-MEL, with NCI-H23 and in the experiment with HT-29 was > 100 µM (inactive) in each case. The GI50 with NCI-H226 was > 100 µM (inactive).

For `C[N+](C)(C)CC(=O)N/N=C/c1oc(-c2cccc([N+](=O)[O-])c2)c(-c2cccc([N+](=O)[O-])c2)c1[N+](=O)[O-]`, the GI50 in the experiment on HOP-92 is > 100 µM (inactive); with SK-MEL-2, > 100 µM (inactive); in the experiment with UACC-257, > 100 µM (inactive); in the experiment with RPMI-8226, 21.7 µM (inactive); in the experiment on SF-539, > 100 µM (inactive); in the experiment on HL-60 it was 42.3 µM (inactive). The GI50 in the experiment with SK-MEL-28 was 44.3 µM (inactive); in the experiment with SNB-19, 85.9 µM (inactive); in the experiment on SK-MEL-5, 72.3 µM (inactive); in the experiment with M19-MEL, 38.5 µM (inactive); in the experiment with NCI-H23, > 100 µM (inactive); in the experiment with HT-29 it was > 100 µM (inactive). For the same compound, the GI50 in the experiment with SR is 40.1 µM (inactive).

`COC(=O)Cc1cc(OC)c(OC)cc1Br`: the GI50 in the experiment on HOP-92, in the experiment with SK-MEL-2, in the experiment on UACC-257, in the experiment with RPMI-8226, in the experiment on HL-60 and in the experiment on SK-MEL-28 was > 100 µM (inactive) throughout. For the same compound, the GI50 in the experiment on KM12, in the experiment with SNB-19, in the experiment on M19-MEL, in the experiment with NCI-H23, in the experiment on HT-29 and in the experiment on SR was > 100 µM (inactive) in each case. For the same compound, in the experiment on NCI-H226, the GI50 is > 100 µM (inactive).

As for `CC(=O)Nc1ccc(Cl)c(Cl)c1`, the GI50 in the experiment with UACC-257 was > 100 µM (inactive); in the experiment on RPMI-8226, > 100 µM (inactive); in the experiment with SF-539, > 100 µM (inactive); with HL-60, > 10 µM (inactive); in the experiment on HCT-15, over 100 µM; with SK-MEL-28, > 100 µM (inactive). For the same compound, the GI50 in the experiment with KM12, in the experiment on SNB-19, in the experiment on M19-MEL, in the experiment with NCI-H23, with HT-29 and in the experiment with SR was > 100 µM (inactive) in each case. Moreover, the GI50 in the experiment on NCI-H226 is > 100 µM (inactive).

Regarding `CSc1s[s+]c(SC)c1[O-]`, the GI50 was 33 µM (inactive) in the experiment on HOP-92; 32.3 µM (inactive) in the experiment on SK-MEL-2; 17.7 µM (inactive) in the experiment on UACC-257; 20.6 µM (inactive) in the experiment on SF-539; 17.4 µM (inactive) in the experiment on HL-60; 32.9 µM with HCT-15. The GI50 in the experiment on SK-MEL-28 is 17.1 µM (inactive); in the experiment on KM12 it was 62.4 µM (inactive); with SNB-19, > 100 µM (inactive); in the experiment with SK-MEL-5, 90.6 µM (inactive); with M19-MEL, 15.5 µM (inactive); with NCI-H23, 20.5 µM (inactive). In addition, the GI50 in the experiment on HT-29 was 24.7 µM (inactive); in the experiment with SR it was 9.95 µM (inactive); with NCI-H226, > 100 µM (inactive).

As for `CCP(C)(C)=O`, the GI50 in the experiment with SK-MEL-2 is > 100 µM (inactive); in the experiment on UACC-257 it was > 100 µM (inactive); with RPMI-8226, > 100 µM (inactive); in the experiment with SF-539, > 100 µM (inactive); in the experiment on HCT-15 it was over 100 µM; in the experiment with SK-MEL-28 it was > 100 µM (inactive). The GI50 in the experiment on KM12, with SNB-19, in the experiment with SK-MEL-5, in the experiment with M19-MEL, with NCI-H23 and in the experiment on HT-29 was > 100 µM (inactive) throughout.

Regarding `O=C1C=C(Nc2ccc(Br)cc2)c2ccccc2C1=O`, the GI50 was 15.5 µM (inactive) in the experiment on SK-MEL-2; 13.5 µM (inactive) in the experiment on UACC-257; 6.73 µM (inactive) in the experiment on RPMI-8226; 16 µM (inactive) with SF-539; 4.51 µM (inactive) in the experiment with HL-60; 5.26 µM in the experiment with HCT-15. For the same compound, the GI50 in the experiment on SK-MEL-28 was 17.2 µM (inactive); with KM12, 14.1 µM (inactive); in the experiment on SNB-19, 15.6 µM (inactive); in the experiment with M19-MEL, 1.73 µM (inactive); in the experiment with NCI-H23, 3.33 µM (inactive); with HT-29, 17.5 µM (inactive). In addition, the GI50 in the experiment with SR was 2.54 µM (inactive); with NCI-H226, 18.7 µM (inactive).

As for `O=c1[c-](-c2ccccc2)[se]c(-c2ccccc2)[n+]1-c1ccccc1`, the GI50 in the experiment on HOP-92 is 18.6 µM (inactive); in the experiment with SK-MEL-2 it was 6.55 µM (inactive); in the experiment with UACC-257, 12.8 µM (inactive); in the experiment with RPMI-8226 it was 29.1 µM (inactive); in the experiment with SF-539 it was 1.48 µM (inactive); with HL-60, 1.53 µM (inactive). The GI50 with HCT-15 was 13.2 µM; in the experiment on SK-MEL-28, 9.31 µM (inactive); in the experiment on KM12, 10.3 µM (inactive); with SNB-19 it was 7.52 µM (inactive); with SK-MEL-5 it was 13 µM (inactive); in the experiment with M19-MEL it was 7.59 µM (inactive). In addition, the GI50 with NCI-H23 was 11.8 µM (inactive); in the experiment with HT-29, 23 µM (inactive); with NCI-H226 it was 3.13 µM (inactive).

Consider `O=C(O)/C(=C/c1ccccc1[N+](=O)[O-])c1ccccc1`, for which the GI50 in the experiment on SK-MEL-2 is > 100 µM (inactive); in the experiment on UACC-257, > 100 µM (inactive); in the experiment on RPMI-8226 it was > 100 µM (inactive); with SF-539, > 100 µM (inactive); in the experiment with HL-60 it was > 100 µM (inactive); in the experiment with HCT-15, over 100 µM. The GI50 in the experiment with SK-MEL-28, in the experiment on KM12, with SNB-19, in the experiment on SK-MEL-5, in the experiment on M19-MEL and in the experiment with NCI-H23 was > 100 µM (inactive) each time. Further, the GI50 in the experiment on HT-29, with SR and in the experiment with NCI-H226 was > 100 µM (inactive) each time.

Take `CC(C)(C)N1Cc2ccccc2/C(=C/Sc2ccccc2)C1=O`: the GI50 is 13.3 µM (inactive) in the experiment with HOP-92; 15.2 µM (inactive) with SK-MEL-2; 14.3 µM (inactive) with UACC-257; 5.82 µM (inactive) with RPMI-8226; 8.57 µM (inactive) in the experiment on SF-539; 13.5 µM (inactive) with HL-60. For the same compound, the GI50 in the experiment with HCT-15 is 12.9 µM; in the experiment on BT-549, 6.53 µM (inactive); with Hs-578T, 16.7 µM (inactive); in the experiment with SK-MEL-28, 17.5 µM (inactive); in the experiment with KM12, 17 µM (inactive); in the experiment with MDA-MB-231 it was 16.5 µM (inactive). Moreover, the GI50 with DU-145 was 16.9 µM (inactive); with SNB-19 it was 16 µM (inactive); in the experiment with SK-MEL-5 it was 6.9 µM (inactive); in the experiment on NCI-H23, 6.84 µM (inactive); in the experiment with HT-29, 17 µM (inactive); in the experiment on SR, 2.64 µM (inactive). For the same compound, the GI50 in the experiment on NCI-H226 is 8.83 µM (inactive).

Take `N#CCc1ccc(/C(C#N)=C2/OC(=N)C(c3ccc(CC#N)cc3)C2=O)cc1` (stereo unspecified): the GI50 in the experiment with HOP-92, in the experiment on SK-MEL-2, in the experiment on UACC-257, with RPMI-8226, with SF-539 and in the experiment with HL-60 was > 100 µM (inactive) in each case. Moreover, the GI50 was over 100 µM in the experiment with HCT-15; > 100 µM (inactive) with SK-MEL-28; > 100 µM (inactive) with SNB-19; > 100 µM (inactive) with SK-MEL-5; > 100 µM (inactive) with M19-MEL; > 100 µM (inactive) with NCI-H23. The GI50 in the experiment on HT-29 and with NCI-H226 was > 100 µM (inactive) each time.

Turning to `Cc1cc2c(cc1C)[n+]([O-])c(C(=O)C/C(=N/NC(=O)CC#N)C(=O)Nc1ccccc1C(F)(F)F)c(C)[n+]2[O-]`, the GI50 in the experiment on SK-MEL-2 is 39.5 µM (inactive); with UACC-257, 44.6 µM (inactive); in the experiment on SF-539, 50.2 µM (inactive); with HL-60, 24.3 µM (inactive); with HCT-15, 36.6 µM; in the experiment on SK-MEL-28, 70.8 µM (inactive). Besides, the GI50 with KM12 was 34 µM (inactive); with SNB-19, 75 µM (inactive); in the experiment on M19-MEL, 43.2 µM (inactive); in the experiment on NCI-H23 it was 91.4 µM (inactive); in the experiment on HT-29 it was 49.3 µM (inactive); in the experiment on NCI-H226 it was 26.9 µM (inactive).

`COc1ccc(C#Cn2nnc3ccccc32)cc1`: the GI50 in the experiment on HOP-92 is > 100 µM (inactive); in the experiment with SK-MEL-2, 92 µM (inactive); with UACC-257, 50.4 µM (inactive); with RPMI-8226, 26.1 µM (inactive); in the experiment on SF-539, > 100 µM (inactive); in the experiment on HL-60 it was 21.6 µM (inactive). The GI50 was over 100 µM with HCT-15; > 100 µM (inactive) in the experiment on BT-549; > 100 µM (inactive) in the experiment on Hs-578T; > 100 µM (inactive) in the experiment with SK-MEL-28; 96.4 µM (inactive) in the experiment with KM12; > 100 µM (inactive) in the experiment with MDA-MB-231. Besides, the GI50 in the experiment on DU-145 is 41 µM (inactive); with SNB-19, > 100 µM (inactive); with SK-MEL-5, > 100 µM (inactive); in the experiment on NCI-H23, > 100 µM (inactive); with HT-29 it was > 100 µM (inactive); with SR it was > 100 µM (inactive). In addition, the GI50 in the experiment with NCI-H226 was 64.7 µM (inactive).

As for `Cc1nn(C(=O)c2ccc(Cl)cc2)c2c1C(c1ccccc1)SC(=N)N2` (stereo unspecified), the GI50 in the experiment on HOP-92, in the experiment on SK-MEL-2, in the experiment with UACC-257, with RPMI-8226, in the experiment on SF-539 and in the experiment on HL-60 was > 10 µM (inactive) throughout. For the same compound, the GI50 in the experiment with HCT-15 was over 10 µM; in the experiment with BT-549, > 10 µM (inactive); in the experiment on Hs-578T it was > 10 µM (inactive); in the experiment on SK-MEL-28 it was > 10 µM (inactive); in the experiment with KM12, > 10 µM (inactive); in the experiment on MDA-MB-231 it was > 10 µM (inactive). The GI50 with DU-145, with SNB-19, in the experiment on SK-MEL-5, in the experiment with NCI-H23, in the experiment on HT-29 and in the experiment on SR was > 10 µM (inactive) in each case. Moreover, the GI50 in the experiment with NCI-H226 is > 10 µM (inactive).
